Among the data in BindingDB's records for patent US11466047 (Merck Sharp & Dohme, 2022) are EC50 values, retold here.

In the assay the target is T1, Stimulator of interferon genes protein [R71H,G230A,H232R,R293Q] (Homo sapiens, UniProt Q86WV6, G230A/H232R/R293Q/R71H).
T1 construct: gene STING1
Kind of assay: 3H-cGAMP Filtration Binding Assay. The protocol: The compounds were serially titrated by the Hamilton STARPlus CORE in a 96-well plate (Greiner, #651201) using a 1:3 ten-point dose response format. After compound preparation, a 2.2 ug/ml working concentration of STING membrane (SEQ. ID. No. 1) was prepared by diluting concentrated membrane into assay buffer (lx PBS; Invitrogen #SH30028.02) and douncing 7× using a manual tissue homogenizer (Wheaton, #357546). 148 uL of prepared membrane was then manually added to each well of a 96-well deep-well polypropylene plate (Fisher Scientific, #12-566-121). Following membrane addition, 2 uL of either titrated test compound, DMSO control (Sigma #276855), or cold cGAMP control was added to the appropriate wells using a BIOMEK FX. Compound and membrane then preincubated for 60 min at RT to allow compound binding to equilibrate. Following equilibration, 8 nM of [3H]c-GAMP ligand was prepared by diluting into assay buffer, and 50 uL of this working stock was then manually added to each well of the assay plate. Plates were then incubated at RT for 60 min, and the contents of each assay plate were then filtered through a 96-well GF/B filter plate (PerkinElmer, #6005250) using a TOMTEC MACH III Cell Harvester equipped with 20 mM HEPES buffer (Fisher Scientific, #BP299500). […] Tritium levels for each reaction well were then measured using a PerkinElmer TopCount plate reader.

In general, EC50 refers to the concentration that produces a half-maximal response. Lower therefore signals higher potency in that assay.

T1 sequence (Q86WV6 whole entry R71H/G230A/H232R/R293Q, looked up): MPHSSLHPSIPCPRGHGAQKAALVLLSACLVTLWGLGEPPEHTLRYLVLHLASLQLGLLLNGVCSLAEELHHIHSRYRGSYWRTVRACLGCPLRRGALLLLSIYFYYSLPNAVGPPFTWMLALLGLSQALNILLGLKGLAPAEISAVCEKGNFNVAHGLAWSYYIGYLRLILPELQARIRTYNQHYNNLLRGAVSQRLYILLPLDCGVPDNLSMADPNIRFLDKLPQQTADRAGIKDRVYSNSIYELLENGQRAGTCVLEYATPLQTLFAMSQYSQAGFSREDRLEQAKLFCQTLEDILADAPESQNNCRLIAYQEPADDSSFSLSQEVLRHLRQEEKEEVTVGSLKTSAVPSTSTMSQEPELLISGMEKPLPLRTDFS

Consider `Nc1nc2c(ncn2[C@@H]2O[C@@H]3COP(=S)(S)O[C@H]4[C@H](F)[C@H](n5cnc6c(=O)[nH]cnc65)O[C@@H]4COP(O)(=S)O[C@@H]2[C@@H]3F)c(=O)[nH]1` (stereo partly specified) [US11466047, Example 27], for which the EC50 was less than 1 nM.
